Test results reported in patent publication US9096607B2, “Tumor necrosis factor inhibitors” (THE TRUSTEES OF THE UNIVERSITY OF PENNSYLVANIA, priority 2005, dated 2015).

Tests used:
[1] = system: EGF-signaling in NE91 cells; assay: Effect on EGF-signaling in NE91 cells (western blot); type: cell-based; conditions: 2 hr treatment, EGF 100 ng/mL
Procedure: To verify the effects of I-9 were specific to TNF-α signaling, the effect of I-9 on EGF-signaling was tested in NE91 cells (American Type Culture Collection, Manassas, Va.). NE91 cells were cultured in RPMI medium containing 10% FBS in 6-well plate at the density of 1×10^6/well for 12 hr, followed by 2 hr treatment with or without I-9. Cells were then stimulated with EGF at 100 ng/mL for the indicated time. Cells were then lysed and analyzed by western blotting in the same manner as described above for analysis of TNF-α signaling in L929 cells.

[2] = system: TNF-α signaling in THP1 cells; assay: Inhibition of TNF-α signaling in THP1 cells (western blot); type: cell-based, Human; conditions: 2 hr pretreatment
Procedure: THP1 cells (Human acute monocytic leukemia cell line, American Type Culture Collection, Manassas, Va.) were cultured in RPMI with the supplement of 50 mM HEPES, 1 mM Na Pyruvate, 50 μM of 2-ME, 2.5 mg/mL of glucose, […] of gentamicin and 10% of FBS. Cells were cultured in 12-well plate at a density of 6×10^5/well with supplement of 100 ng/mL PMA. Cells were plated 72 hrs to differentiate. Cells were then pretreated with or without small molecule for 2 hr, followed by treatment with TNF-α at 20 ng/mL at the indicated periods. Cells were then lysed and analyzed by western blotting in the same manner as described above for L929 cells.

L929 cells = assay: Inhibition of TNF-α mediated cytolysis of L929 cells (Alamar Blue); type: cell-based, murine; conditions: TNF-α 100 pg/mL, actinomycin D 1 μM
Source text: L929 cultured murine fibroblasts cells were obtained from American Type Culture Collection (Manassas, Va.). Tissue culture reagents were from Invitrogen or Sigma-Aldrich. TNF-α and Actinomycin D were from Sigma-Aldrich. Alamar Blue reagents (Cell Titer Blue™) were from Promega. The test compounds I-1 through I-16, II-1 through II-8, and III-1 through III-3 were obtained commercially or can be prepared as described above. The test compounds were individually dissolved in dimethylsulfoxide (DMSO). The test compounds were maintained at 4° C. when not in use. Other reagents were high-purity (ACS-grade, HPLC-grade, MilliQ water, or similar).
Stock L929 cells were grown on tissue culture plastic in complete DMEM (Dulbecco's Modified Eagles Medium) supplemented with 10% FBS (Fetal Bovine Serum), NEAA (non-essential amino acids), and glutamine. L929 cells were plated using the same medium on 96-well tissue culture plates at high density (i.e., ˜4×10^4 cells/well, or similar) before use.
Approximately 20 h after plating, the L929 cells on 96-well plates were re-fed with fresh medium containing one of the test compounds in a concentration selected from 100 μM, 50 μM, 25 μM as a “pre-treatment.” Approximately 30-60 min later, samples were treated with an additional amount of test compound (in the same amount and at the same concentration as the pre-treatment) prepared in medium containing TNF-α (200 pg/mL), and actinomycin D (2 μM). The final concentration of TNF-α in assays was 100 pg/mL. The final concentration of actinomycin D in assays was 1 μM. The plates were incubated for an additional 22-23 h, the Alamar Blue assay reagents were added and metabolic cell viability was determined from reduction of a fluorogenic Alamar Blue derivative.
The temperature was maintained at 37° C. with 5% CO2 and humidified. The metabolic viability was measured 1-2 h after addition of assay reagents/Alamar Blue derivative using TECAN SaFire fluorescence plate reader (Tecan Group Ltd., Maennedorf, Switzerland).
Inhibition of TNF-α induced cytolysis by a test compound (X) at a given concentration (y) was calculated as follows: […]

TNF-R1 = molecular target: T1, TNF-R1 (Homo sapiens, UniProt P19438); assay: Acrylamide quenching of intrinsic tryptophan fluorescence of TNF-R1 (Stern-Volmer); type: binding; conditions: test compound 20 μM, 5 μM TNF-R1; TNF-R1 alone 14.4±0.2 M^−1
T1 construct: The ectodomain of wild type TNF receptor 1 was obtained by PCR from pKP13; made in house
T1 sequence (P19438 30-211 limits assumed): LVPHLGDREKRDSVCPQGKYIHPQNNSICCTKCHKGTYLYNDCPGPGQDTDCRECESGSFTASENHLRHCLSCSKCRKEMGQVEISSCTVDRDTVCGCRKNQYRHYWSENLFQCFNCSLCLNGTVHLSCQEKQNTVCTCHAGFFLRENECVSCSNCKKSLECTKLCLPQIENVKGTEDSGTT
Procedure: The residue W107 in the WP9 loop fluoresces around 340 nm. In this set of experiments, the resultant concentration of quencher ranged up to 0.25 M, quenching 77.4% of the total intrinsic fluorescence of TNF-R1. […] Thus binding of 1-9 to the receptor changed the disposition of tryptophan-107.
Quenching experiments with acrylamide were performed in stirred cells, at 25° C., titrating from a stock of 1 M acrylamide by adding 2.5 μl of acrylamide each time. Recombinant TNF-R1 were at the concentration of 5 μM in 1% DMSO. Tryptophan emission, monitored at 340 nm, was observed using 295 nm excitation. Intensity data following quencher additions were averaged over a 10-sec collection and were corrected for background emission (paired control lacking of protein). Intensities, F, at given quencher concentration, [Q], were analyzed using the Stern-Volmer equation, F0/F=1+KS.V·[Q] • Where F0 is the emission intensity of the protein in the absence of quencher, and KS.V is the Stern-Volmer constant for quenching, given by the slope when data are plotted as Fo/F versus [Q].
For synthesized small molecules, a test compound at 20 μM was pre-incubated with 5 μM TNF-R1 in 1% DMSO for 30 min, and titrated with 1 M acrylamide the same way as TNF-R1 alone. The F0/F was analyzed using the Stern-Volmer equation, and two slopes from TNF receptor and from TNF receptor with the test compound were compared.

CC(=O)Oc1ccc(C(C)(c2ccc(OC(C)=O)cc2)c2ccc(OC(C)=O)cc2)cc1 [Compound I-9, 1,1,1-Tris-(4-acetoxyphenyl)ethane]
changes in EGF-induced signaling [1]: failed to induce changes
TNF-α mediated I-kBα phosphorylation [2]: inhibited
TNF-α mediated p38 phosphorylation [2]: inhibited
% Inhibition at: 25 μM (L929 cells; 25 μM compound): 37.2%
% Inhibition at: 50 μM (L929 cells; 50 μM compound): 65.2%
% Inhibition at: 100μM (L929 cells; 100 μM compound): 50.9%
Stern-Volmer constant for TNF-R1 quenching by acrylamide in the presence of the test compound (TNF-R1): 11.6 ± 0.2 M⁻¹
